The text below walks through data of ChEMBL document CHEMBL5108009, “Positron Emission Tomography (PET) Imaging Tracers for Serotonin Receptors” (J Med Chem, 2022).

What is called Ki is a dissociation constant, usually derived from enzyme kinetics or from competition with a known ligand. The term IC50 denotes the concentration that inhibits the measured activity by half. The term Kd denotes the constant that tells how readily two partners part at equilibrium.

Structures are written as SMILES.

For data set [1], the target named is Histamine H1 receptor (Cavia porcellus, UniProt P31389). The experiment in a line: Binding affinity to guinea pig cerebellum homogenate membrane H1 receptor incubated for 30 mins. It is filed as cell membranes.
Sequence of Histamine H1 receptor (P31389 whole entry): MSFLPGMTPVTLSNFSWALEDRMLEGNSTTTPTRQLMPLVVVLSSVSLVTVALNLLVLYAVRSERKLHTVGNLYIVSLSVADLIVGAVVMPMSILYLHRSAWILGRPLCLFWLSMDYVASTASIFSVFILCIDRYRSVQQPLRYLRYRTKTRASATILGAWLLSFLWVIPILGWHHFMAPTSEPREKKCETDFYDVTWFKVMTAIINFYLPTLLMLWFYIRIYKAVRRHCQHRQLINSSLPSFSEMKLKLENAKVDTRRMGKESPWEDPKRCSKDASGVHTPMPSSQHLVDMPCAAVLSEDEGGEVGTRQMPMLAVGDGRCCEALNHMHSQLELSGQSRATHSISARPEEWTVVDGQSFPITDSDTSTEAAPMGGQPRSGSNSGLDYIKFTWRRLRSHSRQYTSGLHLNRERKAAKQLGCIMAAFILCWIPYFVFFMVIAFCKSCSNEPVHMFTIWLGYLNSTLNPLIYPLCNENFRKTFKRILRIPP
Data set [2] has as its target T1, D(2) dopamine receptor (Rattus norvegicus, UniProt P61169). The experiment in a line: Binding affinity to rat striatum homogenate membrane D2 receptor incubated for 10 mins. It is filed as cell membranes.
Data set [3] deals with T2, Alpha-1A adrenergic receptor (Rattus norvegicus, UniProt P43140).
T2 sequence (P43140 whole entry): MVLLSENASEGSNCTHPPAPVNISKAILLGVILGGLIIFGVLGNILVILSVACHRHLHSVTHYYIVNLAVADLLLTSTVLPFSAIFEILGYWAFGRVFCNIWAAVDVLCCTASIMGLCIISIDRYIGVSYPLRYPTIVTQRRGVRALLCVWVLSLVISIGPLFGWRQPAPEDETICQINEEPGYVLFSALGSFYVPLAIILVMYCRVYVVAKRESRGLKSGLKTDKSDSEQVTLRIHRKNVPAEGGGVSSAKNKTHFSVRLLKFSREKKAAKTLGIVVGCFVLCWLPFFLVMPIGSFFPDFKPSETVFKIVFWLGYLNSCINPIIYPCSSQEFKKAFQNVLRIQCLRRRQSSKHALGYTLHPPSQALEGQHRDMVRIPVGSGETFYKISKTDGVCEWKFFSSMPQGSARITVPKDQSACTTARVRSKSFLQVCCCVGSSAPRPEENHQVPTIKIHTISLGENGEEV
The experiment in a line: Binding affinity to rat forebrain homogenate membrane alpha 1 adrenergic receptor incubated for 10 mins. The format is cell membranes.

Data set [4] addresses Serotonin 2 (5-HT2) receptor (Rattus norvegicus, UniProt P30994+P08909+P14842). The data set can be described thus: Displacement of [3H]-spiperone from rat frontal cortex 5-HT2 receptor. The format is tissue-based.
Data set [5] addresses T3, 5-hydroxytryptamine receptor 2A (Rattus norvegicus, UniProt P14842). The experiment in a line: Binding affinity to rat frontal cortex homogenate 5-HT2A by ketanserin assay. It is filed as tissue-based.
Data set [6] addresses T2, Alpha-1A adrenergic receptor. The data set can be described thus: Displacement of [3H]prazosin from rat cerebral cortex alpha1 adrenergic receptor. It is filed as tissue-based. On the technique in general: Loss of bound radioactivity is the signal in a displacement assay; it reports binding, not function.
In data set [7] the target is 5-hydroxytryptamine receptor 2A (Homo sapiens, UniProt P28223). The experiment in a line: Binding affinity to human frontal cortex homogenate 5-HT2A by ketanserin assay. It is filed as tissue-based.
Sequence of 5-hydroxytryptamine receptor 2A (Homo sapiens, UniProt P28223) (P28223 whole entry): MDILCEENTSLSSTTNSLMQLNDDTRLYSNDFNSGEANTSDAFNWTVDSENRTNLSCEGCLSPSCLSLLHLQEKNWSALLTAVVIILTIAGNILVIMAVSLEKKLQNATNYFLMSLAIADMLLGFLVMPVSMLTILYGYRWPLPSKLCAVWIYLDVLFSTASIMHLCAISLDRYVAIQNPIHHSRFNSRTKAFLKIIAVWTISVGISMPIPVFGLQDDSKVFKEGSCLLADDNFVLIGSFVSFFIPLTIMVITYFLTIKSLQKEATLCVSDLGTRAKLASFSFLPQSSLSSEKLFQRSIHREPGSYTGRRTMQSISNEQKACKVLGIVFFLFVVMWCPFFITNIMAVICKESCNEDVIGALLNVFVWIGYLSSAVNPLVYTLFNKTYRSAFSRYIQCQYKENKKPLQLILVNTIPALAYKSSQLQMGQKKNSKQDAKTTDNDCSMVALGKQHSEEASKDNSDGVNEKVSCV
The target in data set [8] is T1, D(2) dopamine receptor. The experiment in a line: Displacement of [3H]-spiperone from rat striatum D2 receptor.
Data set [9] deals with T3, 5-hydroxytryptamine receptor 2A. The data set can be described thus: Antagonist activity at rat 5-HT2A receptor. The format is functional.
Data set [10] has the same target. The data set can be described thus: Binding affinity to rat frontal cortex 5-HT2A assessed as dissociation constant. It is filed as tissue-based.
The target is the same in data set [11]. The experiment in a line: Binding affinity to rat frontal cortex 5-HT2A assessed as inhibition constant. It is filed as tissue-based.
Data set [12] concerns the target T4, 5-hydroxytryptamine receptor 1A (Homo sapiens, UniProt P08908).
T4 sequence (P08908 whole entry): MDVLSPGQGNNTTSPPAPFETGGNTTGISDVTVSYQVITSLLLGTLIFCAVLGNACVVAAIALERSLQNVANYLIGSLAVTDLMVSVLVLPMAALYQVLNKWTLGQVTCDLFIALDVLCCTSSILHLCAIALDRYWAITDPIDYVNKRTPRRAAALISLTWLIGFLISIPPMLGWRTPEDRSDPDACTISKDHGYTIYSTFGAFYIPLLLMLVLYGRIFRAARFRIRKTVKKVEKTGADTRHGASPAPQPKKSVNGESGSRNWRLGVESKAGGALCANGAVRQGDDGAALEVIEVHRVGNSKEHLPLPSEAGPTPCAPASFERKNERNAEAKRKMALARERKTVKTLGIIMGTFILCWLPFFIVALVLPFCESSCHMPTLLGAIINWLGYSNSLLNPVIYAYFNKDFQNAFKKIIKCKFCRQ
The data set can be described thus: Inhibition of 5-HT1A receptor (unknown origin).

Data set [13] has as its target T4, 5-hydroxytryptamine receptor 1A.
A short description of data set [14]: Binding affinity to rat cerebral cortex homogenate 5-HT1A receptor assessed as inhibition constant. The format is tissue-based.
Data set [15] has as its target 5-hydroxytryptamine receptor 4 (Homo sapiens, UniProt Q13639). The data set can be described thus: Binding affinity to 5-HT4 receptor (unknown origin) assessed as inhibition constant.
Data set [16] is described as follows: Drug uptake in human brain. It is filed as ADME, tissue-based.
Data set [17] concerns the target Serotonin 2 (5-HT2) receptor (Homo sapiens, UniProt P41595+P28223+P28335). The data set can be described thus: Binding affinity to 5-HT2 receptor (unknown origin) assessed as dissociation constant. It is filed as protein assay.
A short description of data set [18]: Binding affinity to rhesus monkey 5-HT1B receptor assessed as inhibition constant. The arrangement: species or system Macaca mulatta.
A short description of data set [19]: Binding affinity to rhesus monkey 5-HT1D receptor assessed as inhibition constant. Details: species or system Macaca mulatta.
Data set [20] deals with T5, 5-hydroxytryptamine receptor 2C (Homo sapiens, UniProt P28335).
T5 sequence (P28335 whole entry): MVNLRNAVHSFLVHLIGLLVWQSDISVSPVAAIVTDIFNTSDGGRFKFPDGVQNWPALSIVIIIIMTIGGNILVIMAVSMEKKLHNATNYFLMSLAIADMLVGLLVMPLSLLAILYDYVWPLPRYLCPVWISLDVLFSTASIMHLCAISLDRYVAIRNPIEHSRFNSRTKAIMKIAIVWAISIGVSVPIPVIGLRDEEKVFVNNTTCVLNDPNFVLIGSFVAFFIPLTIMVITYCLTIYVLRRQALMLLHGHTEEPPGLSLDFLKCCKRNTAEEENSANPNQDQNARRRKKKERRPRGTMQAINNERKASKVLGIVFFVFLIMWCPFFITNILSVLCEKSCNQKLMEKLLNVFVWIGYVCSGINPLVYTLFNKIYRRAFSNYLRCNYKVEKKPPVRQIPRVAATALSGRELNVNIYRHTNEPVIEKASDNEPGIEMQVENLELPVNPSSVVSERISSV
The data set can be described thus: Displacement of [3H]-mesulergine from 5-HT2C (unknown origin) assessed as inhibition constant by radioligand competitive binding assay.

Data set [21] in a line: In vivo binding affinity of Papio anubis baboon 5-HT2C assessed as inhibition constant measured after 1 to 21 mins postinjection. The format is functional, organism-based.
Data set [22] concerns the target 5-hydroxytryptamine receptor 2B (Homo sapiens, UniProt P41595). The experiment in a line: Displacement of [3H]-mesulergine from 5-HT2B (unknown origin) assessed as inhibition constant by radioligand competitive binding assay.
Data set [23] has as its target T4, 5-hydroxytryptamine receptor 1A. The experiment in a line: Displacement of [3H]-mesulergine from 5-HT1A (unknown origin) assessed as inhibition constant by radioligand competitive binding assay.
Data set [24] in a line: Ratio of drug uptake in human cortex to cerebellum assessed as increase in uptake relative to control. It is filed as ADME, tissue-based.
Data set [25] concerns the target T2, Alpha-1A adrenergic receptor. The data set can be described thus: Displacement of [3H]prazosin from rat whole brain alpha1 adrenergic receptor. It is filed as tissue-based.
In data set [26] the target is T1, D(2) dopamine receptor. The experiment in a line: Displacement of [3H]-spiperone from rat striatal membrane D2 receptor. It is filed as cell membranes, Striatum.
Data set [27] addresses T3, 5-hydroxytryptamine receptor 2A. The experiment in a line: Displacement of [3H]-Ketanserin from rat cortical membrane 5-HT2A receptor. The format is cell membranes, Cortex.
Data set [28] is described as follows: Drug uptake in human frontal cortex assessed as non-displaceable binding potential. It is filed as ADME, tissue-based.
Data set [29] in a line: Ratio of drug uptake in rat cortex to cerebellum at steady state. The format is ADME, tissue-based. The settings on record: in vivo.

T1 sequence (P61169 whole entry): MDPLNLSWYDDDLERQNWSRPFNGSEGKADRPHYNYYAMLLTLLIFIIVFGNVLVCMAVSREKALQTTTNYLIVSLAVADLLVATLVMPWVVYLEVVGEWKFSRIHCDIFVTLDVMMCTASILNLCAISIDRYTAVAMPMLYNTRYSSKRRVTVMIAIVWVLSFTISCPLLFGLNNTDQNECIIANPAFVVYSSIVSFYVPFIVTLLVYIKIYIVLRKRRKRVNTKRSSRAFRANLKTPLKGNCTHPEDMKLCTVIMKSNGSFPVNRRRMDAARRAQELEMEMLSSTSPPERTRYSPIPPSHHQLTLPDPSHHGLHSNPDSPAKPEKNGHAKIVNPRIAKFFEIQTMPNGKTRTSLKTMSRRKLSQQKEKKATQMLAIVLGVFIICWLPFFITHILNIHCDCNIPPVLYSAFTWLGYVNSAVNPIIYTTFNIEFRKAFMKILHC
T3 sequence (P14842 whole entry): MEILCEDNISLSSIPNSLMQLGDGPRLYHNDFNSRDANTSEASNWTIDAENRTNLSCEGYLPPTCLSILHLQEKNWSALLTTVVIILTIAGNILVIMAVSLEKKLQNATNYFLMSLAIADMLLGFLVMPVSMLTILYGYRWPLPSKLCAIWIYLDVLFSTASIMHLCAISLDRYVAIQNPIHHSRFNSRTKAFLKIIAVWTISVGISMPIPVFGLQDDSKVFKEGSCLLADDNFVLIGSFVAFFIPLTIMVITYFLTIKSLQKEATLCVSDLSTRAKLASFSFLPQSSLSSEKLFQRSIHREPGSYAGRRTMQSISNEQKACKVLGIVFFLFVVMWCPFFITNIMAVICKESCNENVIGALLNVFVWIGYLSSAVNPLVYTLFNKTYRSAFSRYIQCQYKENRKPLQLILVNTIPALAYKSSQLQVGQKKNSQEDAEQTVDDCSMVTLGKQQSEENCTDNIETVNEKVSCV
Sequence of 5-hydroxytryptamine receptor 4 (Q13639 whole entry): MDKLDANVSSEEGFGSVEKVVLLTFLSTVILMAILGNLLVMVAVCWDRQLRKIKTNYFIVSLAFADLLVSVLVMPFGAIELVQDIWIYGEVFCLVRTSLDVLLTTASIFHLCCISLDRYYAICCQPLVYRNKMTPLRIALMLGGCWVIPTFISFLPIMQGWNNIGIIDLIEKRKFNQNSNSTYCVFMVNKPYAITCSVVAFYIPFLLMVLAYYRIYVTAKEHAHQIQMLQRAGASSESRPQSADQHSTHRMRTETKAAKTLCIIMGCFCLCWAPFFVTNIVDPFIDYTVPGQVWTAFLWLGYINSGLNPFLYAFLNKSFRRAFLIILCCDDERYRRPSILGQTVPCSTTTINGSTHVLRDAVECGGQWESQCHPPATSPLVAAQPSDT
Sequence of 5-hydroxytryptamine receptor 2B (P41595 whole entry): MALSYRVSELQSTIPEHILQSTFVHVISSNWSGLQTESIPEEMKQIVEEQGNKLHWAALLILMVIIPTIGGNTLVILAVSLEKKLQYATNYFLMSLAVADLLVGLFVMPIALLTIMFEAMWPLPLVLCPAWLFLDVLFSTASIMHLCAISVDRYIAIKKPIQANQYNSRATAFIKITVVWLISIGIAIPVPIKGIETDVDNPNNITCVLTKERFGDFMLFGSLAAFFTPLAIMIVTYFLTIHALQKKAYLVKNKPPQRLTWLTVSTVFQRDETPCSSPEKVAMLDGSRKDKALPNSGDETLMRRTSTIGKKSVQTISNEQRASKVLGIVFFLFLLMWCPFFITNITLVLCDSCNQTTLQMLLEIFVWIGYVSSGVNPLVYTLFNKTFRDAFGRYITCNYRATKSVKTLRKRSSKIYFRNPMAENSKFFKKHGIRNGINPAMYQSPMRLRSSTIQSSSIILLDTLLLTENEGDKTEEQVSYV

`O=C(c1ccc(F)cc1)C1CCN(CCn2c(=O)[nH]c3ccccc3c2=O)CC1` [KETANSERIN]: the Ki in data set [1] stood at 10 nM; in data set [2], 220 nM; in data set [3], 10 nM.

For the compound `CN1CN(c2ccccc2)C2(CCN(CCCC(=O)c3ccc(F)cc3)CC2)C1=O` [MESPIPERONE], the IC50 came to 1.3 nM in data set [4], 10.1 nM in [6] and 0.23 nM in data set [8]. The Ki in data set [5] turned out to be 0.5 nM; in data set [7], 8.8 nM.

In data set [9], `COc1cccc(CCc2ccccc2OCC[C@@H]2C[C@@H](O)CN2C)c1` came in with a Ki of 0.79 nM.

For the compound `CC1(NC(=O)c2ccc(N)cc2)CCN(CCCOc2ccc(F)cc2)CC1`, in data set [10], the Kd amounted to 0.11 nM. Moreover, the Ki in data set [11] turned out to be 0.2 nM.

`CCCN(CCC)C1CCc2ccc3[nH]cc(C=O)c3c2C1` (centres undefined) showed an IC50 in [12] of 1.2 nM. The same compound yielded a Ki in [13] of 1.2 nM.

For `O=S1(=O)c2cccc3cccc(c23)N1CCCN1CCN(c2ccc(F)cc2)CC1` [FANANSERIN], the Ki in [14] came out at 70 nM.

Take `[11CH3]N1CCC(COC(=O)c2cc(Cl)c(N)c3c2OCCO3)CC1`: in data set [15], the Ki came out at 0.3 nM. The same compound had an SUVmax in [16] of 28 kBq/cm3.

For `CN(C)CCO/N=C(/C=C/c1ccc(O)cc1)c1ccccc1F` [EPLIVANSERIN], in data set [17], the Kd turned out to be 1.2 nM.

As to `COC(C)(C)c1ccc(N2CC[C@@H](Cc3ccccc3N3CCN(C)CC3)C2=O)cc1`, the Ki is 1.2 nM in [18] and 12 nM in data set [19].

Turning to `[11CH3]N1CCc2nc3ccnn3c(N3CCC3)c2CC1`, the Ki in [20] is 75 nM; in [21], 161 nM; in data set [22], more than 1000 nM; in data set [23] it was more than 1000 nM.

As for `[2H]C([2H])(Cn1c(=S)[nH]c2ccccc2c1=O)N1CCC(C(=O)c2ccc([18F])cc2)CC1`, the Drug uptake in data set [24] came to 26%.

Consider `Cc1ccc2c(c1)c(-c1ccc(F)cc1)c(C)n2C1CCN(C)CC1`, for which the Ki is 2700 nM in data set [25], 2600 nM in data set [26] and 5.3 nM in [27].

Turning to `COc1c(OCC[18F])cccc1C(O)C1CCN(CCc2ccc(F)cc2)CC1` (racemic), the Drug uptake in [28] turned out to be 1.5. Further, the Ratio in data set [29] is recorded as 3.2.
